What all share (assay type): functional
Test [1] relates to Candida albicans. Description: Antifungal activity against Candida albicans assessed as reduction in fungal cell growth incubated for 48 hrs by broth microdilution susceptibility method. (Dilution methods test growth across graded concentrations, often in twofold steps.)
The test system of test [2] is Candida albicans. Kind of test: In vivo antifungal activity against Candida albicans TA infected in CDF-1 mouse dosed orally assessed as survival of mouse. As to conditions: po.
Another test has as its system Aspergillus niger. Kind of test: Antifungal activity against Aspergillus niger assessed as inhibition zone at 250 ug/ml. As to conditions: read-out: IZ.
Test [3] concerns Candida albicans. Description: Antifungal activity against Candida albicans assessed as inhibition zone at 250 ug/ml. As to conditions: read-out: IZ.
The subject of the next test is Fusarium oxysporum. Kind of test: Antifungal activity against Fusarium oxysporum assessed as reduction in fungal cell growth incubated for 24 and 72 hrs by cup plate method.
Test [4] concerns Candida albicans. Description: Antifungal activity against Candida albicans assessed as reduction in fungal cell growth incubated for 24 and 72 hrs by cup plate method.
For the next test, the system named is Aspergillus flavus. Description: Antifungal activity against Aspergillus flavus assessed as reduction in fungal cell growth incubated for 24 and 72 hrs by cup plate method.

≈ marks a conversion by molar mass, not a printed value.

Usually MIC stands for the lowest concentration that inhibits growth of the organism. As a reminder, the ED50 is the midpoint of the dose-response relation.

In the case of `CN(C)c1ccc(/C=C2/C(=O)N(/N=C/c3cc4ccccc4n4nnnc34)C(=S)N(c3ccc(Cl)cc3)C2=O)cc1`, the MIC with Candida albicans [1] is not below 100 µg/mL.
Take `C[C@@H](n1nnn(-c2ccc(F)cc2)c1=O)[C@](O)(Cn1cncn1)c1ccccc1`: the ED50 with Candida albicans [2] was in the range of 0.71 to 2 mg/kg.
For `S=C1N=C(c2ccccc2)CC(c2cc3ccccc3n3nnnc23)N1` (centres undefined), the MIC in the test with Candida albicans [1] was not below 100 µg/mL.
`Clc1ccc(-c2nnnn2-c2nc3ccccc3s2)cc1`: the zone of inhibition at 250 µg/mL with Aspergillus niger and in the test on Candida albicans [3] was 13 to 23 mm throughout.
As to `CCOC(=O)C(C#N)C(c1cc2cc(OC)ccc2n2nnnc12)P(=O)(OCC)OCC` (centres undefined), the MIC in the test on Fusarium oxysporum, with Candida albicans [4] and with Aspergillus flavus was 10 to 25 µg/mL (≈ 21.7 to 54.2 µM) throughout.
With `CCOC(=O)C(C#N)C(c1cc2cc(C)ccc2n2nnnc12)P(=O)(OCC)OCC` (centres undefined), the MIC in the test on Fusarium oxysporum, in the test with Candida albicans [4] and in the test on Aspergillus flavus was 10 to 25 µg/mL (≈ 22.5 to 56.1 µM) throughout.
Regarding `S=C1N=C(c2ccc(Cl)cc2)CC(c2cc3ccccc3n3nnnc23)N1` (centres undefined), the MIC in the test on Candida albicans [1] is not below 100 µg/mL.
For `COc1ccc2cc(/C=C/C(=O)c3cc(Br)ccc3O)c3nnnn3c2c1`, the MIC with Fusarium oxysporum, with Candida albicans [4] and in the test on Aspergillus flavus was 25 to 100 µg/mL (≈ 58.8 to 235 µM) each time.
Turning to `COc1cccc2c1cc(/C=C/C(=O)c1cc(Br)ccc1O)c1nnnn12`, the MIC in the test on Fusarium oxysporum, with Candida albicans [4] and in the test with Aspergillus flavus was 25 to 100 µg/mL (≈ 58.8 to 235 µM) in each case.
Regarding `Cc1ccc(N2C(=O)/C(=C\c3ccc(N(C)C)cc3)C(=O)N(/N=C/c3cc4ccccc4n4nnnc34)C2=S)cc1`, the MIC in the test on Candida albicans [1] is not below 100 µg/mL.
In the case of `Cc1ccc2cc(/C=C3\SC(=S)N(CC(=O)O)C3=O)c3nnnn3c2c1`, the MIC with Fusarium oxysporum, in the test on Candida albicans [4] and with Aspergillus flavus was 25 to 50 µg/mL (≈ 64.9 to 130 µM) in each case.
Regarding `CCOC(=O)C(C#N)C(c1cc2c(OCC)cccc2n2nnnc12)P(=O)(OCC)OCC` (centres undefined), the MIC in the test on Fusarium oxysporum, with Candida albicans [4] and with Aspergillus flavus was 10 to 25 µg/mL (≈ 21 to 52.6 µM) in each case.
With `CCOC(=O)C(C#N)C(c1cc2c(C)cccc2n2nnnc12)P(=O)(OCC)OCC` (centres undefined), the MIC with Fusarium oxysporum, in the test with Candida albicans [4] and in the test with Aspergillus flavus was 10 to 25 µg/mL (≈ 22.5 to 56.1 µM) throughout.
For the compound `CCOC(=O)C(C#N)C(c1cc2ccc(C)cc2n2nnnc12)P(=O)(OCC)OCC` (centres undefined), the MIC with Fusarium oxysporum, with Candida albicans [4] and with Aspergillus flavus was 10 to 25 µg/mL (≈ 22.5 to 56.1 µM) throughout.
Turning to `COc1ccc2cc(C3CC(c4cc(Br)ccc4O)=NO3)c3nnnn3c2c1` (centres undefined), the MIC in the test on Fusarium oxysporum is 25 to 100 µg/mL (≈ 56.8 to 227 µM); in the test on Candida albicans [4], 25 µg/mL (≈ 56.8 µM); with Aspergillus flavus, 25 µg/mL (≈ 56.8 µM).
Take `Clc1ccccc1C(c1ccccc1)(c1ccccc1)n1ccnc1` [CLOTRIMAZOLE]: the MIC in the test on Candida albicans [1] was 12.5 µg/mL (≈ 36.2 µM).
Same read-out and setting: the result for `CN(C)c1ccc(/C=C2/C(=O)N(/N=C/c3cc4ccccc4n4nnnc34)C(=S)N(c3ccccc3)C2=O)cc1` reads not below 100 µg/mL.
In the case of `CCOC(=O)C(C#N)C(c1cc2ccc(CC)cc2n2nnnc12)P(=O)(OCC)OCC` (centres undefined), the MIC in the test on Fusarium oxysporum, with Candida albicans [4] and in the test on Aspergillus flavus was 10 to 25 µg/mL (≈ 21.8 to 54.4 µM) each time.
On to `O=C1/C(=C/c2ccccc2)C(=O)N(c2ccccc2)C(=S)N1/N=C/c1cc2ccccc2n2nnnc12`, for which the MIC in the test on Candida albicans [1] was not below 100 µg/mL.
Regarding `Cc1ccc2cc(/C=C/C(=O)c3cc(Br)ccc3O)c3nnnn3c2c1`, the MIC with Fusarium oxysporum, in the test with Candida albicans [4] and with Aspergillus flavus was 25 to 100 µg/mL (≈ 61.1 to 244 µM) in each case.
For the compound `COc1ccc2c(c1)cc(/C=C/C(=O)c1cc(Br)ccc1O)c1nnnn12`, the MIC in the test with Fusarium oxysporum, in the test with Candida albicans [4] and with Aspergillus flavus was 25 to 100 µg/mL (≈ 58.8 to 235 µM) in each case.
As to `S=C1N=C(c2ccc(Br)cc2)CC(c2cc3ccccc3n3nnnc23)N1` (centres undefined), the MIC in the test on Candida albicans [1] was not below 100 µg/mL.
Take `CCOC(=O)C(C#N)C(c1cc2ccccc2n2nnnc12)P(=O)(OCC)OCC` (centres undefined): the MIC with Fusarium oxysporum, with Candida albicans [4] and in the test on Aspergillus flavus was 10 to 25 µg/mL (≈ 23.2 to 58 µM) throughout.
Consider `O=C(/C=C/c1cc2ccccc2n2nnnc12)c1cc(Br)ccc1O`, for which the MIC in the test on Fusarium oxysporum, with Candida albicans [4] and in the test with Aspergillus flavus was 25 to 100 µg/mL (≈ 63.3 to 253 µM) each time.
Take `C[C@@H](n1nnn(-c2ccc(OC(F)(F)F)cc2)c1=O)[C@](O)(Cn1cncn1)c1ccccc1`: the ED50 in the test with Candida albicans [2] fell in the range of 0.71 to 2 mg/kg.

The values above are taken from ChEMBL document CHEMBL4393657, “Tetrazole hybrids and their antifungal activities” (2019).
